Measurements taken from US8415272B2, “Quinoline derivatives and their use as fungicides” (Syngenta Crop Protection LLC, priority 2008, dated 2013).

How the values were obtained:
Fusarium culmorum = assay: Growth inhibition in nutrient broth, Fusarium culmorum (root rot), photometric; type: cell-based; settings: 48 h, read-out: control of fungal infection, Fusarium culmorum
Method: The compounds were tested in a leaf disk assay, with methods described below. The test compounds were dissolved in DMSO and diluted into water to 200 ppm. In the case of the test on Pythium ultimum, they were dissolved in DMSO and diluted into water to 20 ppm.
Fusarium culmorum (root rot): Conidia of the fungus from cryogenic storage were directly mixed into nutrient broth (PDB potato dextrose broth). After placing a (DMSO) solution of the test compounds into a microtiter plate (96-well format) the nutrient broth containing the fungal spores was added. The test plates were incubated at 24 C and the inhibition of growth was determined photometrically after 48 hrs.

Septoria nodorum = assay: Leaf disk assay, Septoria nodorum (wheat glume blotch), preventive; type: in vivo; settings: Parastagonospora nodorum, foliar, 96 h, wheat leaf segments, assessed four days after inoculation, read-out: control of fungal infection, Septoria nodorum
Pythium ultimum = assay: Growth inhibition in potato dextrose broth, Pythium ultimum (damping off), photometric; type: cell-based; settings: Globisporangium ultimum, 24° C., 48 hours, read-out: control of fungal infection, Pythium ultimum
Method in brief: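 Growth inhibition was read photometrically at 48 hours after incubation at 24° C. Test compound was diluted from DMSO to 20 ppm in water and combined with potato dextrose broth seeded with Pythium ultimum mycelial fragments.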

Phytophthora infestans = assay: whole plant or invertebrate; type: in vivo; settings: in Solanum lycopersicum, foliar, 96 h, read-out: control of fungal infection, Phytophthora infestans
Plasmopara viticola = assay: Leaf disk assay, Plasmopara viticola (downy mildew of grapevine), preventive; type: in vivo; settings: foliar, 168 h, grapevine leaf disks, assessed seven days after inoculation, read-out: control of fungal infection, Plasmopara viticola
Septoria tritici = assay: Growth inhibition in nutrient broth, Septoria tritici (leaf blotch), photometric; type: cell-based; settings: Zymoseptoria tritici, PDB broth, 24 C, 72 hrs, read-out: control of fungal infection, Septoria tritici
[1] = tested on: Erysiphe graminis f.sp. tritici; assay: Leaf disk assay, Erysiphe graminis f.sp. tritici (wheat powdery mildew), preventive; type: in vivo; settings: Blumeria graminis, foliar, 96 h, wheat leaf segments, assessed four days after inoculation, read-out: control of fungal infection, Erysiphe graminis f.sp. tritici
Method in brief: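 Preventive protocol: compound at 200 ppm in water (from DMSO) sprayed onto wheat leaf segments on agar, dried 12–24 h, then spore-inoculated. Fungicidal activity was assessed four days post-inoculation.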

[2] = tested on: Puccinia recondita f.sp. tritici; assay: Leaf disk assay, Puccinia recondita f.sp. tritici (wheat brown rust), preventive; type: in vivo; settings: foliar, 216 h, wheat leaf segments, assessed nine days after inoculation, read-out: control of fungal infection, Puccinia recondita f.sp. tritici

C#CCOCC#CC(C)(C)NC(=O)C(Oc1cc2cc(C#C)cnc2cc1F)SC (stereo not shown) [Example 198]
≥ 60%: inhibition of growth at 60 ppm (Fusarium culmorum) | pest or weed control at 200 ppm (Septoria nodorum) | inhibition of growth at 20 ppm (Pythium ultimum) | pest or weed control at 200 ppm (Phytophthora infestans) | pest or weed control at 200 ppm (Plasmopara viticola) | inhibition of growth at 60 ppm (Septoria tritici) | pest or weed control at 200 ppm [1] | pest or weed control at 200 ppm [2]

C#Cc1cnc2ccc(OC(SC)C(=O)NC(C)C)cc2c1 (stereo not shown) [Example 98]
≥ 60%: inhibition of growth at 60 ppm (Fusarium culmorum) | pest or weed control at 200 ppm (Septoria nodorum) | inhibition of growth at 20 ppm (Pythium ultimum) | pest or weed control at 200 ppm (Phytophthora infestans) | pest or weed control at 200 ppm (Plasmopara viticola) | inhibition of growth at 60 ppm (Septoria tritici) | pest or weed control at 200 ppm [1] | pest or weed control at 200 ppm [2]

C#Cc1cnc2cc(F)c(OC(SC)C(=O)NC(C)C)cc2c1 (stereo not shown) [Example 181]
≥ 60%: inhibition of growth at 60 ppm (Fusarium culmorum) | pest or weed control at 200 ppm (Septoria nodorum) | inhibition of growth at 20 ppm (Pythium ultimum) | pest or weed control at 200 ppm (Phytophthora infestans) | pest or weed control at 200 ppm (Plasmopara viticola) | inhibition of growth at 60 ppm (Septoria tritici) | pest or weed control at 200 ppm [1] | pest or weed control at 200 ppm [2]

C#Cc1cnc2c(F)cc(OC(SC)C(=O)NC(C)C)cc2c1 (stereo not shown) [Example 222]
≥ 60%: inhibition of growth at 60 ppm (Fusarium culmorum) | pest or weed control at 200 ppm (Septoria nodorum) | inhibition of growth at 20 ppm (Pythium ultimum) | pest or weed control at 200 ppm (Phytophthora infestans) | pest or weed control at 200 ppm (Plasmopara viticola) | inhibition of growth at 60 ppm (Septoria tritici) | pest or weed control at 200 ppm [1] | pest or weed control at 200 ppm [2]

C#Cc1cnc2cc(F)c(OC(SC)C(=O)NC(C)(C)COCC)cc2c1 (stereo not shown) [Example 200]
≥ 60%: inhibition of growth at 60 ppm (Fusarium culmorum) | pest or weed control at 200 ppm (Septoria nodorum) | inhibition of growth at 20 ppm (Pythium ultimum) | pest or weed control at 200 ppm (Phytophthora infestans) | pest or weed control at 200 ppm (Plasmopara viticola) | inhibition of growth at 60 ppm (Septoria tritici) | pest or weed control at 200 ppm [1] | pest or weed control at 200 ppm [2]

C#Cc1cnc2ccc(OC(SC)C(=O)NC(C)(C#CC)CC)cc2c1 (stereo not shown) [Example 204]
≥ 60%: inhibition of growth at 60 ppm (Fusarium culmorum) | pest or weed control at 200 ppm (Septoria nodorum) | inhibition of growth at 20 ppm (Pythium ultimum) | pest or weed control at 200 ppm (Phytophthora infestans) | pest or weed control at 200 ppm (Plasmopara viticola) | inhibition of growth at 60 ppm (Septoria tritici) | pest or weed control at 200 ppm [1] | pest or weed control at 200 ppm [2]

C#Cc1cnc2ccc(OC(SC)C(=O)NC(C)(C#C)C#C)cc2c1 (stereo not shown) [Example 159]
≥ 60%: inhibition of growth at 60 ppm (Fusarium culmorum) | pest or weed control at 200 ppm (Septoria nodorum) | inhibition of growth at 20 ppm (Pythium ultimum) | pest or weed control at 200 ppm (Phytophthora infestans) | pest or weed control at 200 ppm (Plasmopara viticola) | inhibition of growth at 60 ppm (Septoria tritici) | pest or weed control at 200 ppm [1] | pest or weed control at 200 ppm [2]

C#CCNC(=O)C(Oc1ccc2ncc(C#C)cc2c1)SC (stereo not shown) [Example 208]
≥ 60%: inhibition of growth at 60 ppm (Fusarium culmorum) | pest or weed control at 200 ppm (Septoria nodorum) | inhibition of growth at 20 ppm (Pythium ultimum) | pest or weed control at 200 ppm (Phytophthora infestans) | pest or weed control at 200 ppm (Plasmopara viticola) | inhibition of growth at 60 ppm (Septoria tritici) | pest or weed control at 200 ppm [1] | pest or weed control at 200 ppm [2]

C#Cc1cnc2ccc(OC(SC)C(=O)NC3(C#C)CCCCC3)cc2c1 (stereo not shown) [Example 206]
≥ 60%: inhibition of growth at 60 ppm (Fusarium culmorum) | pest or weed control at 200 ppm (Septoria nodorum) | inhibition of growth at 20 ppm (Pythium ultimum) | pest or weed control at 200 ppm (Phytophthora infestans) | pest or weed control at 200 ppm (Plasmopara viticola) | inhibition of growth at 60 ppm (Septoria tritici) | pest or weed control at 200 ppm [1] | pest or weed control at 200 ppm [2]

C#Cc1cnc2c(F)cc(OC(SC)C(=O)NC(C)(C)C#CCOC)cc2c1 (stereo not shown) [Example 218]
≥ 60%: inhibition of growth at 60 ppm (Fusarium culmorum) | pest or weed control at 200 ppm (Septoria nodorum) | inhibition of growth at 20 ppm (Pythium ultimum) | pest or weed control at 200 ppm (Phytophthora infestans) | pest or weed control at 200 ppm (Plasmopara viticola) | inhibition of growth at 60 ppm (Septoria tritici) | pest or weed control at 200 ppm [1] | pest or weed control at 200 ppm [2]

C#Cc1cnc2ccc(OC(SC)C(=O)NC3CCC3)cc2c1 (stereo not shown) [Example 213]
≥ 60%: inhibition of growth at 60 ppm (Fusarium culmorum) | pest or weed control at 200 ppm (Septoria nodorum) | inhibition of growth at 20 ppm (Pythium ultimum) | pest or weed control at 200 ppm (Phytophthora infestans) | pest or weed control at 200 ppm (Plasmopara viticola) | inhibition of growth at 60 ppm (Septoria tritici) | pest or weed control at 200 ppm [1] | pest or weed control at 200 ppm [2]

C#Cc1cnc2cc(F)c(OC(SC)C(=O)NC(C)(C)C#CCCOC)cc2c1 (stereo not shown) [Example 189]
≥ 60%: inhibition of growth at 60 ppm (Fusarium culmorum) | pest or weed control at 200 ppm (Septoria nodorum) | inhibition of growth at 20 ppm (Pythium ultimum) | pest or weed control at 200 ppm (Phytophthora infestans) | pest or weed control at 200 ppm (Plasmopara viticola) | inhibition of growth at 60 ppm (Septoria tritici) | pest or weed control at 200 ppm [1] | pest or weed control at 200 ppm [2]

C#Cc1cnc2cc(F)c(OC(SC)C(=O)NC(C)(C)C#CCOCC)cc2c1 (stereo not shown) [Example 191]
≥ 60%: inhibition of growth at 60 ppm (Fusarium culmorum) | pest or weed control at 200 ppm (Septoria nodorum) | inhibition of growth at 20 ppm (Pythium ultimum) | pest or weed control at 200 ppm (Phytophthora infestans) | pest or weed control at 200 ppm (Plasmopara viticola) | inhibition of growth at 60 ppm (Septoria tritici) | pest or weed control at 200 ppm [1] | pest or weed control at 200 ppm [2]

C#Cc1cnc2ccc(OC(SC)C(=O)NC3CCCC3)cc2c1 (stereo not shown) [Example 214]
≥ 60%: inhibition of growth at 60 ppm (Fusarium culmorum) | pest or weed control at 200 ppm (Septoria nodorum) | inhibition of growth at 20 ppm (Pythium ultimum) | pest or weed control at 200 ppm (Phytophthora infestans) | pest or weed control at 200 ppm (Plasmopara viticola) | inhibition of growth at 60 ppm (Septoria tritici) | pest or weed control at 200 ppm [1] | pest or weed control at 200 ppm [2]

C#Cc1cnc2cc(F)c(OC(SC)C(=O)NC(C)(C=O)COC)cc2c1 (stereo not shown) [Example 210]
≥ 60%: inhibition of growth at 60 ppm (Fusarium culmorum) | pest or weed control at 200 ppm (Septoria nodorum) | inhibition of growth at 20 ppm (Pythium ultimum) | pest or weed control at 200 ppm (Plasmopara viticola) | inhibition of growth at 60 ppm (Septoria tritici) | pest or weed control at 200 ppm [1] | pest or weed control at 200 ppm [2]

C#CCOCC(C)(C)NC(=O)C(OC)Oc1ccc2ncc(C#C)cc2c1 (stereo not shown) [Example 127]
≥ 60%: inhibition of growth at 60 ppm (Fusarium culmorum) | pest or weed control at 200 ppm (Septoria nodorum) | inhibition of growth at 20 ppm (Pythium ultimum) | pest or weed control at 200 ppm (Phytophthora infestans) | pest or weed control at 200 ppm (Plasmopara viticola) | inhibition of growth at 60 ppm (Septoria tritici) | pest or weed control at 200 ppm [1] | pest or weed control at 200 ppm [2]

CSC(Oc1ccc2ncc(C#CCCl)cc2c1)C(=O)NC(C)(C)C (stereo not shown) [Example 143]
≥ 60%: inhibition of growth at 60 ppm (Fusarium culmorum) | pest or weed control at 200 ppm (Septoria nodorum) | inhibition of growth at 20 ppm (Pythium ultimum) | inhibition of growth at 60 ppm (Septoria tritici) | pest or weed control at 200 ppm [2]

C#Cc1cnc2cc(F)c(OC(SC)C(=O)NC(C)(C)C#CC)cc2c1 (stereo not shown) [Example 107]
≥ 60%: inhibition of growth at 60 ppm (Fusarium culmorum) | pest or weed control at 200 ppm (Septoria nodorum) | pest or weed control at 200 ppm (Phytophthora infestans) | pest or weed control at 200 ppm (Plasmopara viticola) | inhibition of growth at 60 ppm (Septoria tritici) | pest or weed control at 200 ppm [1] | pest or weed control at 200 ppm [2]
